In patent publication US7994123B2, “Hybrid proteins with ErbB4 extracellular domain and neuregulin heparin-binding domain for targeting” (Wayne State University, priority 2004, dated 2011):

What was measured:
NRG1 = biological target: T1, NRG1 (Homo sapiens, UniProt Q02297); experiment: Gel mobility shift assay (GMSA); format: binding; conditions: 35 ng NRG1, 20 minutes; heparins at 0, 1, 10, 100 μg/ml
T1 construct: the intact IgEGF form of NRG1 corresponds to amino acids 14-246; purchased R&D (Minneapolis Minn.)
T1 sequence (Q02297 14-246 isoform Q02297-6): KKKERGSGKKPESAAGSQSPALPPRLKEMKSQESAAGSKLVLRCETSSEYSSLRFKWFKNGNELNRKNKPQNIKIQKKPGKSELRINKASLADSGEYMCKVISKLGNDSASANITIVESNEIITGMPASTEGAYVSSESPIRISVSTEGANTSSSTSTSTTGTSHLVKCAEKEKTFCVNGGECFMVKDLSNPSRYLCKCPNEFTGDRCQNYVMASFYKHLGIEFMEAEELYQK
Procedure: Gel Mobility Shift Assay (GMSA)—NRG1 alone, or NRG1 plus various heparins at various concentrations were incubated with binding buffer (2.7 mM KCl, 4.3 mM Na2HPO4, 10 mM MgCl2, 1.4 mM KH2PO4, 12% glycerol, 1 mM DTT.) for 20 minutes and run on a 6% (29:1 acrylamide:bis) non-denaturing gel (10 mM Tris (pH 7.4), 1 mM EDTA) for 20 minutes at 200 V as described (Wu, Z L et al. (2002) FASEB J 16, 539-45; Wu, Z L et al. (2003) J Biol Chem 278:17121-29). […] However, band resolution was sharper at pH 8.0 and was therefore used for our studies here. Protein was transferred to a polyvinylidene fluoride membrane (Millipore corp.) for 1 hr at 100V. NRG1 bands were detected by western blot analysis using a polyclonal rabbit antiserum (AD03) developed against the IgEGF polypeptide (Assay Designs Inc.). The filters were then probed with a goat anti-rabbit antibody coupled to peroxidase (Chemicon), exposed to X-blue film (Eastman Kodak Co.) after treatment with chemiluminescence reagents, and bands were quantified as above.

[1] = system: NRG1-induced erbB receptor phosphorylation (p185) in L6 cells; experiment: Inhibition of NRG1-induced p185 by heparins in L6 cells; format: cell-based; conditions: for inhibition of NRG1-induced erbB receptor phosphorylation (p185): 75 pM IgEGF NRG1 pre-incubated with heparin 20 minutes, L6 cells 45 minutes
Procedure: (§1) Cell Cultures and Western Blots for p185 phosphorylation—L6 Cells were used to quantify erbB receptor phosphotyrosine (p185) as described (WO 03/012045; Li & Loeb, supra). Cells were plated at 50,000 cells/well and grown for 8 days. Chlorate was filter sterilized and incubated with L6 cells for 2 days prior to the assay. Inhibition assays of p185 were performed by pre-incubating 75 pM of IgEGF NRG1 and various concentrations of the heparins at room temp for 20 minutes. 150 μL of this mixture was then applied to 8 day-old L6 cells for 45 minutes at 37° C. in […]. The medium was aspirated, and the cells were solubilized in 50 μL sample buffer and boiled for 5 minutes as described previously (WO 03/012045; Li & Loeb, supra) 15 μL of this was resolved on a 5% denaturing polyacrylamide gel. Phosphorylated forms of the erbB receptors (p185) were detected by western blot analysis using the phosphotyrosine monoclonal antibody 4G10 (Upstate) and then verified and quantified by reprobing with a mixture of antibodies against erbB2 (Neomarkers Ab-17) and erbB3 (Neomarkers Ab-6). Quantitation was performed by determining the ratio of p185/(erbB2+erbB3) using Metamorph Imaging System (Universal Imaging Corp) on non-saturated images as described (Esper, R M & Loeb, J A (2004) J Neurosci 24:6218-27)

[2] = system: erbB phosphorylation (p185) in L6 muscle cells; experiment: NRG1-induced erbB phosphorylation after reducing endogenous HSPG sulfation; format: cell-based; conditions: chlorate 48 hours
Procedure: as §1, with “24:6218-27) […]” for “24:6218-27)”

[3] = system: MCF10CA1 human breast cancer cells; experiment: Cell proliferation assay, MCF10CA1; format: cell-based; conditions: IgB4 conditioned media, 10 μM AG1478 or 100 μg/ml Trastuzumab; for MCF10CA1 proliferation with exogenous NRG: 1 nM NRG
Procedure: Cell proliferation assays: All three breast epithelial cell lines were plated at 5000 cells/well in 48 well plates in regular MCF10A/AT or MCF10CA1 media. After incubation for 3 days, 1 nM NRG in MCF10A/AT media or just MCF10A/AT media alone were applied to the cells for another 24 hours followed by washing them with culture media and then counting cell numbers using an hemocytometer on the 4th, 5th, 6th, 7th and 8th day.
(§2) After 2 days, the Optimem I conditioned media was concentrated by Centricon at 4° C. 40 μl of IgB4 conditioned media or 10 μM of tyrosine kinase inhibitor AG1478 were combined with […] 1 nM NRG in MCF10A/AT media for 15 min at room temperature before being added to MCF10CA1 cells for 30 min treatment. […] The amount of each antagonist was determined empirically based on its ability to block NRG-induced activation of L6 cells.

[4] = system: erbB receptor phosphorylation (p185) in MCF10CA1 cells; experiment: p185 receptor phosphorylation western blot, MCF10CA1; format: cell-based, human; conditions: for exogenous NRG-induced p185 erbB receptor phosphorylation: AG1478 or 100 μg/ml Trastuzumab (24 h pre-treatment)
Procedure: Western blots and L6 muscle assays: P185 receptor phosphorylation of the three cell lines was measured by phosphotyrosine western blots after NRG treatment for 30 min on 3 day old cultures as described in WO 03/012045 and Li Q & Loeb J A (2001) J Biol Chem; 276:38068-75. […] The media was discarded and phosphotyrosine western blots were performed as above. The membranes were stripped and reprobed with polyclonal rabbit erbB2 for the detection of overall erbB2 protein that was used for quantitation.
as §2

[5] = 1 nM NRG, 30 min, IgB4 conditioned media

In the case of De-N sulfated heparin, the “shift of NRG1 mobility (NRG1 binding)” value (NRG1) is reported as “did not shift NRG1”, the “inhibition of NRG1-induced erbB receptor phosphorylation (p185)” value (from here on “inhibition”) [1] is reported as “little inhibition even at 100 μg/ml” and the “effect on receptor phosphorylation at low concentration” value ([1]; 1 μg/ml) is reported as “modest stimulatory effect”.

`[O-][Cl+2]([O-])O` [chlorate, Sodium chlorate] was tested, and the “reduction of receptor phosphorylation, EGF form” value ([2]; EGF form lacking the heparin-binding domain) was “no reduction” and the “reduction of receptor phosphorylation, IgEGF NRG1” value ([2]; full-length heparin-binding NRG1 (IgEGF)) was 53%.

In the case of heparin, the “shift of NRG1 mobility (NRG1 binding)” value (NRG1) is reported as “shift NRG1 in a dose-dependent manner” and the “inhibition” value [1] is reported as “inhibited by fully-sulfated heparin in a dose-dependent manner”.

De-6O sulfated heparin was tested, and the “shift of NRG1 mobility (NRG1 binding)” value (NRG1) was “shifted NRG1 better than De-N sulfated heparin but less than fully sulfated heparin” and the “inhibition” value [1] was “intermediate effects”.

With `COc1cc2ncnc(Nc3cccc(Cl)c3)c2cc1OC` [AG1478, reference compound] the “MCF10CA1 proliferation with exogenous NRG” value [3] was “reduced the growth rate”, the “MCF10CA1 growth rate without exogenous NRG” value [3] was “reduced the growth rate” and the “EGF receptor phosphorylation (lower band)” value ([4]; 1 nM NRG, 30 min) was “reducing both p185 (erbB2/3, upper band) and EGF receptor phosphorylation (lower band) in a dose dependent manner”. The “exogenous NRG-induced p185 erbB receptor phosphorylation” value [4, 5] was “blocked NRG-induced erbB signaling”.

De-2O sulfated heparin was tested, and the “shift of NRG1 mobility (NRG1 binding)” value (NRG1) was “shifted NRG1 better than De-N sulfated heparin but less than fully sulfated heparin” and the “inhibition” value [1] was “intermediate effects”.

B1: IgB4: soluble NRG antagonist: ECD of erbB4 receptor fused to Fc portion of human IgG1 (protein)
chain: QSVCAGTENKLSSLSDLEQQYRALRKYYENCEVVMGNLEITSIEHNRDLSFLRSVREVTGYVLVALNQFRYLPLENLRIIRGTKLYEDRYALAIFLNYRKDGNFGLQELGLKNLTEILNGGVYVDQNKFLCYADTIHWQDIVRNPWPSNLTLVSTNGSSGCGRCHKSCTGRCWGPTENHCQTLTRTVCAEQCDGRCYGPYVSDCCHRECAGGCSGPKDTDCFACMNFNDSGACVTQCPQTFVYNPTTFQLEHNFNAKYTYGAFCVKKCPHNFVVDSSSCVRACPSSKMEVEENGIKMCKPCTDICPKACDGIGTGSLMSAQTVDSSNIDKFINCTKINGNLIFLVTGIHGDPYNAIEAIDPEKLNVFRTVREITGFLNIQSWPPNMTDFSVFSNLVTIGGRVLYSGLSLLILKQQGITSLQFQSLKEISAGNIYITDNSNLCYYHTINWTTLFSTINQRIVIRDNRKAENCTAEGMVCNHLCSSDGCWGPGPDQCLSCRRFSRGRICIESCNLYDGEFREFENGSICVECDPQCEKMEDGLLTCHGPGPDNCTKCSHFKDGPNCVEKCPDGLQGANSFIFKYADPDRECHPCHPNCTQGCNGPTSHDCIYYPWTGHSTLPQHARTP
modifications: left off: a dimerising Fc or GST
notes: soluble NRG antagonist: ECD of erbB4 receptor fused to Fc portion of human IgG1
In the case of B1, the “MCF10CA1 proliferation with exogenous NRG” value [3] is reported as “blocked MCF10CAL cell proliferation induced by exogenous NRG treatment”, the “MCF10CA1 growth rate without exogenous NRG” value [3] is reported as “significantly reduced the baseline growth rate” and the “exogenous NRG-induced p185 erbB receptor phosphorylation” value [4, 5] is reported as “effectively blocked”. For the same molecule, the “basal p185 erbB receptor phosphorylation” value ([4]; no exogenous NRG, IgB4 conditioned media, 10 μM AG1478 or 100 μg/ml Trastuzumab (24 h pre-treatment)) was “effectively blocked”.
